In patent US20220062240A1, “METHODS OF TREATING CANCER USING A CLK INHIBITOR” (BioSplice Therapeutics, Inc., priority 2018, published 2022):
Like-named read-outs stand apart in the source and are kept apart here.

Legend:
[1] = target: T1, CLK2 (Homo sapiens, UniProt P49760); assay: CLK2 kinase activity assay (Z-lyte, Ser/Thr 6 peptide); assay type: biochemical; settings: recombinant CLK2 kinase, ATP 60 μM; read-out: EC50
T1 construct: purchased Thermo Fisher (Life Technologies), Z'-LYTE Kinase Assay Kits
Procedure: All reactions were performed in duplicate.

[2] = system: BT-549; assay: CellTiter-Glo Viability Assay, breast cancer; assay type: cell-based; settings: Homo sapiens, 96 h; BT-549, breast cancer, four days; read-out: EC50
[3] = system: CAMA1; assay: CellTiter-Glo Viability Assay, breast cancer; assay type: cell-based; settings: Homo sapiens, CAMA-1, 96 h; CAMA1, breast cancer, four days; read-out: EC50
[4] = system: DU4475; assay: CellTiter-Glo Viability Assay, breast cancer; assay type: cell-based; settings: Homo sapiens, DU-4475, 96 h; DU4475, breast cancer, four days; read-out: EC50
[5] = system: HCC1599; assay: CellTiter-Glo Viability Assay, breast cancer; assay type: cell-based; settings: Homo sapiens, 96 h; HCC1599, breast cancer, four days; read-out: EC50
[6] = system: MCF7; assay: CellTiter-Glo Viability Assay, breast cancer; assay type: cell-based; settings: Homo sapiens, 96 h; MCF7, breast cancer, four days; read-out: EC50
[7] = system: MDA-MB-231-Luc; assay: CellTiter-Glo Viability Assay, breast cancer; assay type: cell-based; settings: Homo sapiens, 96 h; MDA-MB-231-Luc, breast cancer, four days; read-out: EC50
[8] = system: T47D; assay: CellTiter-Glo Viability Assay, breast cancer; assay type: cell-based; settings: Homo sapiens, 96 h, breast cancer, four days, read-out: EC50
[9] = system: ZR-75-1; assay: CellTiter-Glo Viability Assay, breast cancer; assay type: cell-based; settings: Homo sapiens, 96 h; ZR-75-1, breast cancer, four days; read-out: EC50
[10] = system: all 50 cell lines; assay: CellTiter-Glo Viability Assay, average across all cell lines; assay type: cell-based; settings: Homo sapiens; across all 50 cell lines; read-out: average EC50 for inhibition of cancer cell proliferation
In short: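 Cells were plated at 300-3,000 per well in their own media, then treated with compound in duplicate, with DMSO wells as controls. After four days at 37° C and 5% CO2, CellTiter-Glo was added, and luminescence was read. EC50s were fitted.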

[11] = system: colorectal cancer (6 cell lines); assay: CellTiter-Glo Viability Assay, colorectal cancer; assay type: cell-based; settings: Homo sapiens, inhibition of cancer cell proliferation
[12] = system: haematopoietic & lymphoid tumors (13 cell lines); assay: CellTiter-Glo Viability Assay, haematopoietic & lymphoid tumors; assay type: cell-based; settings: Homo sapiens, inhibition of cancer cell proliferation
[13] = system: liver cancer (3 cell lines); assay: CellTiter-Glo Viability Assay, liver cancer; assay type: cell-based; settings: Homo sapiens, inhibition of cancer cell proliferation
[14] = system: lung cancer (4 cell lines); assay: CellTiter-Glo Viability Assay, lung cancer; assay type: cell-based; settings: Homo sapiens, inhibition of cancer cell proliferation
[15] = system: ovarian cancer (4 cell lines); assay: CellTiter-Glo Viability Assay, ovarian cancer; assay type: cell-based; settings: Homo sapiens, inhibition of cancer cell proliferation
[16] = system: pancreatic cancer (8 cell lines); assay: CellTiter-Glo Viability Assay, pancreatic cancer; assay type: cell-based; settings: Homo sapiens, inhibition of cancer cell proliferation
[17] = system: prostate cancer (5 cell lines); assay: CellTiter-Glo Viability Assay, prostate cancer; assay type: cell-based; settings: Homo sapiens
[18] = target: CLK3 (Homo sapiens, UniProt P49761); assay: CLK3 kinase activity assay (Z-lyte, Ser/Thr 18 peptide)
[19] = HCT-116, HCT116 cell line, read-out: Colorectal cancer, EC50 (μM) HCT116
[20] = HT-29, HT29 cell line, read-out: Colorectal cancer, EC50 (μM) HT29
[21] = SW-620, SW620 cell line, read-out: Colorectal cancer, EC50 (μM) SW620
[22] = DLD-1 cell line, read-out: Colorectal cancer, EC50 (μM) DLD-1
[23] = SW48 cell line, read-out: Colorectal cancer, EC50 (μM) SW48
[24] = SW480 cell line, read-out: Colorectal cancer, EC50 (μM) SW480
[25] = DND41, DND-41 cell line, read-out: Haematopoietic & Lymphoid tumors, EC50 (μM) DND-41
[26] = MV4-11, MV-4-11 cell line, read-out: Haematopoietic & Lymphoid tumors, EC50 (μM) MV-4-11
[27] = Rec1, REC-1 cell line, read-out: Haematopoietic & Lymphoid tumors, EC50 (μM) REC-1
[28] = SU-DHL-4, SUDHL4 cell line, read-out: Haematopoietic & Lymphoid tumors, EC50 (μM) SUDHL4
[29] = HL-60 cell line, read-out: Haematopoietic & Lymphoid tumors, EC50 (μM) HL-60
[30] = JM1 cell line, read-out: Haematopoietic & Lymphoid tumors, EC50 (μM) JM1
[31] = JURKAT, Clone E6-1 cell line, read-out: Haematopoietic & Lymphoid tumors, EC50 (μM) JURKAT, Clone E6-1
[32] = JeKo-1 cell line, read-out: Haematopoietic & Lymphoid tumors, EC50 (μM) JeKo-1
[33] = KASUMI-1 cell line, read-out: Haematopoietic & Lymphoid tumors, EC50 (μM) KASUMI-1
[34] = Loucy cell line, read-out: Haematopoietic & Lymphoid tumors, EC50 (μM) Loucy
[35] = MOLT-4 cell line, read-out: Haematopoietic & Lymphoid tumors, EC50 (μM) MOLT-4
[36] = TF-1 cell line, read-out: Haematopoietic & Lymphoid tumors, EC50 (μM) TF-1
[37] = TOLEDO cell line, read-out: Haematopoietic & Lymphoid tumors, EC50 (μM) TOLEDO
[38] = SNU-398, SNU398 cell line, read-out: Liver cancer, EC50 SNU398
[39] = HEPG2 cell line, read-out: Liver cancer, EC50 HEPG2
[40] = PLC/PRF/5 cell line, read-out: Liver cancer, EC50 PLC/PRF/5
[41] = A-427, A427 cell line, read-out: Lung cancer, EC50 (μM) A427
[42] = HCC78, HCC-78 cell line, read-out: Lung cancer, EC50 (μM) HCC-78
[43] = NCI-H460 cell line, read-out: Lung cancer, EC50 (μM) NCI-H460
[44] = NCI-H522 cell line, read-out: Lung cancer, EC50 (μM) NCI-H522
[45] = PA-1, PA1 cell line, read-out: Ovarian cancer, EC50 (μM) PA1
[46] = TOV112D, TOV-112D cell line, read-out: Ovarian cancer, EC50 (μM) TOV-112D
[47] = OV-90 cell line, read-out: Ovarian cancer, EC50 (μM) OV-90
[48] = OVCAR-3 cell line, read-out: Ovarian cancer, EC50 (μM) OVCAR-3
[49] = BXPC-3, BxPC3 cell line, read-out: Pancreatic cancer, EC50 BxPC3
[50] = CAPAN-1, Capan1 cell line, read-out: Pancreatic cancer, EC50 Capan1
[51] = Capan-2, Capan2 cell line, read-out: Pancreatic cancer, EC50 Capan2
[52] = MIA PaCa-2 cell line, read-out: Pancreatic cancer, EC50 MIA PaCa-2
[53] = PANC 05.04 cell line, read-out: Pancreatic cancer, EC50 PANC 05.04
[54] = PANC-1 cell line, read-out: Pancreatic cancer, EC50 PANC-1
[55] = UPAFII cell line, read-out: Pancreatic cancer, EC50 UPAFII
[56] = DU-145, read-out: Prostate cancer EC50 Du-145
[57] = PC-3, PC3 cell line, inhibition of cancer cell proliferation, read-out: Prostate cancer EC50 PC3
[58] = 22Rv1 cell line, inhibition of cancer cell proliferation, read-out: Prostate cancer EC50 22Rv1
[59] = LNCap clone FGC cell line, inhibition of cancer cell proliferation, read-out: Prostate cancer EC50 LNCap clone FGC
[60] = VCaP (Sigma) cell line, inhibition of cancer cell proliferation, read-out: Prostate cancer EC50 VCaP (Sigma)

Sequence of CLK3 (P49761 whole entry): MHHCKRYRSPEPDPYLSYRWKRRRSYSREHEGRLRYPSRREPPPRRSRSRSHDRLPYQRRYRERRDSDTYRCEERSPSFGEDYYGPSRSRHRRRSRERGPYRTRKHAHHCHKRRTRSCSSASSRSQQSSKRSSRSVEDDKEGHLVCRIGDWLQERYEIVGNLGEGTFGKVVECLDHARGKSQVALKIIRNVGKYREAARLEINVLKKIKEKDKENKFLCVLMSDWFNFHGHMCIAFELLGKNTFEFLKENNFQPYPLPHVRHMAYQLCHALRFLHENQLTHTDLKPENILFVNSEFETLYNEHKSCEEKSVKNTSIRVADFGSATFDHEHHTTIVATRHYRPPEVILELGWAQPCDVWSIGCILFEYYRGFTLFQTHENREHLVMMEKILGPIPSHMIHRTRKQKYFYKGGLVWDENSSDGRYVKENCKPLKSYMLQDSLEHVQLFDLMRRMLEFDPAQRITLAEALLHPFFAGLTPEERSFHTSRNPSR
T1 sequence (P49760 whole entry): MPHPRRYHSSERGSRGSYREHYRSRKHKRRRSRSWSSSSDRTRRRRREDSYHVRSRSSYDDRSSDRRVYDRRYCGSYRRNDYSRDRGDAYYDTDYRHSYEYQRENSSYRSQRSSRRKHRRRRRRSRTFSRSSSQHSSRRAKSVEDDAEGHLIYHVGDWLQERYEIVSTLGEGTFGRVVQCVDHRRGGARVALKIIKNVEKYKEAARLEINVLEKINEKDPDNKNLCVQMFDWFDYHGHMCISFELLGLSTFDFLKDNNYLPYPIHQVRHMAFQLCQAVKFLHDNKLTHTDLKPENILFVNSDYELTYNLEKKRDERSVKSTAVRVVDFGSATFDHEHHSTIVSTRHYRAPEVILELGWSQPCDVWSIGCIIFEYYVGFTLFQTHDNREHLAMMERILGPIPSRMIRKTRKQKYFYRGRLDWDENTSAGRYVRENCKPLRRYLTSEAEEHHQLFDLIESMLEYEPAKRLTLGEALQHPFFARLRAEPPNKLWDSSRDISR

Structure (SMILES): Cn1ncc(-c2ccc3cnc(NC(=O)C4CC5(C4)CN(CCF)C5)cc3c2)c1CN1CCCCC1 [Compound 77]
- EC50 [1]: 5.8 nM
- EC50 [2]: 549 nM
- EC50 [3]: 1850 nM
- EC50 [4]: 452 nM
- EC50 [5]: 606 nM
- EC50 [6]: 1280 nM
- EC50 [7]: 890 nM
- EC50 [8]: 1020 nM
- EC50 [9]: 826 nM
- EC50 [10]: 684 nM
- EC50 [11, 19]: 0.294 µM
- EC50 [11, 20]: 0.537 µM
- EC50 [11, 21]: 0.187 µM
- EC50 [11, 22]: 0.229 µM
- EC50 [11, 23]: 0.12 µM
- EC50 [11, 24]: 0.383 µM
- EC50 [12, 25]: 0.854 µM
- EC50 [12, 26]: 0.069 µM
- EC50 [12, 27]: 0.361 µM
- EC50 [12, 28]: 0.424 µM
- EC50 [12, 29]: 1.78 µM
- EC50 [12, 30]: 0.375 µM
- EC50 [12, 31]: 0.699 µM
- EC50 [12, 32]: 0.469 µM
- EC50 [12, 33]: 0.197 µM
- EC50 [12, 34]: 0.368 µM
- EC50 [12, 35]: 1.22 µM
- EC50 [12, 36]: 0.944 µM
- EC50 [12, 37]: 0.584 µM
- EC50 [13, 38]: 339 nM
- EC50 [13, 39]: 766 nM
- EC50 [13, 40]: 2190 nM
- EC50 [14, 41]: 0.973 µM
- EC50 [14, 42]: 1.28 µM
- EC50 [14, 43]: 0.649 µM
- EC50 [14, 44]: 0.312 µM
- EC50 [15, 45]: 0.71 µM
- EC50 [15, 46]: 0.457 µM
- EC50 [15, 47]: 0.806 µM
- EC50 [15, 48]: 0.204 µM
- EC50 [16, 49]: 422 nM
- EC50 [16, 50]: 673 nM
- EC50 [16, 51]: 495 nM
- EC50 [16, 52]: 318 nM
- EC50 [16, 53]: 635 nM
- EC50 [16, 54]: 659 nM
- EC50 [16, 55]: 660 nM
- EC50 [17, 56]: 734 nM
- EC50 [17, 57]: 901 nM
- EC50 [17, 58]: 814 nM
- EC50 [17, 59]: 432 nM
- EC50 [17, 60]: 1220 nM
- EC50 [18]: 50 nM

Structure (SMILES): O=C1COc2cccc(c2)-c2cncc3[nH]c(nc23)-c2n[nH]c3ccc(cc23)-c2cncc(c2)N1 [Compound 56]
- EC50 [1]: 3.3 nM
- EC50 [2]: 328 nM
- EC50 [3]: 1530 nM
- EC50 [4]: 42 nM
- EC50 [5]: 248 nM
- EC50 [6]: > 10000 nM
- EC50 [7]: 6630 nM
- EC50 [8]: 3220 nM
- EC50 [9]: 6900 nM
- EC50 [10]: 5060 nM
- EC50 [11, 19]: 3.81 µM
- EC50 [11, 20]: > 10 µM
- EC50 [11, 21]: 1.09 µM
- EC50 [11, 22]: 9.99 µM
- EC50 [11, 23]: 5.05 µM
- EC50 [11, 24]: 1.38 µM
- EC50 [12, 25]: 0.959 µM
- EC50 [12, 26]: 0.121 µM
- EC50 [12, 27]: 5.51 µM
- EC50 [12, 28]: 0.365 µM
- EC50 [12, 29]: 3.21 µM
- EC50 [12, 30]: 0.394 µM
- EC50 [12, 31]: > 10 µM
- EC50 [12, 32]: 0.39 µM
- EC50 [12, 33]: 0.767 µM
- EC50 [12, 34]: 0.485 µM
- EC50 [12, 35]: > 10 µM
- EC50 [12, 36]: > 10 µM
- EC50 [12, 37]: 0.402 µM
- EC50 [13, 38]: 160 nM
- EC50 [13, 39]: > 10000 nM
- EC50 [13, 40]: > 10000 nM
- EC50 [14, 41]: 1.31 µM
- EC50 [14, 42]: > 10 µM
- EC50 [14, 43]: > 10 µM
- EC50 [14, 44]: 0.224 µM
- EC50 [15, 45]: 0.767 µM
- EC50 [15, 46]: 1.45 µM
- EC50 [15, 47]: > 10 µM
- EC50 [15, 48]: 0.436 µM
- EC50 [16, 49]: > 10000 nM
- EC50 [16, 50]: 3620 nM
- EC50 [16, 51]: > 10000 nM
- EC50 [16, 52]: 697 nM
- EC50 [16, 53]: > 10000 nM
- EC50 [16, 54]: > 10000 nM
- EC50 [16, 55]: > 10000 nM
- EC50 [17, 56]: > 10000 nM
- EC50 [17, 57]: 3370 nM
- EC50 [17, 58]: 7900 nM
- EC50 [17, 59]: > 10000 nM
- EC50 [17, 60]: > 10000 nM
- EC50 [18]: 16.3 nM
